{
  "source": "patent US11129909B2",
  "about": "“Conjugate and block copolymer containing fluorescent chromophore and preparation method therefor and use thereof” (priority 2017, dated 2021)",
  "key": {"[1]": {"test_system": "HT29 cells (normal CEA and normal NQO1)", "test": "CLSM detection of intracellular CEA and quinone oxidoreductase, HT29 cells", "assay_type": "cell-based", "conditions": "HT29 cells co-cultured with conjugate", "from_the_text": "(§1) Viable HepG2 cells (lacking CEA and NQO1), LS180 cells (normal CEA and lacking NQO1) and HT29 cells (normal CEA and normal NQO1) were co-cultured with QNAM-C1-ACEA antibody-probe conjugate."}, "NQO1": {"target": "NQO1 (Homo sapiens, UniProt P15559)", "sequence (P15559 whole entry, species assumed)": "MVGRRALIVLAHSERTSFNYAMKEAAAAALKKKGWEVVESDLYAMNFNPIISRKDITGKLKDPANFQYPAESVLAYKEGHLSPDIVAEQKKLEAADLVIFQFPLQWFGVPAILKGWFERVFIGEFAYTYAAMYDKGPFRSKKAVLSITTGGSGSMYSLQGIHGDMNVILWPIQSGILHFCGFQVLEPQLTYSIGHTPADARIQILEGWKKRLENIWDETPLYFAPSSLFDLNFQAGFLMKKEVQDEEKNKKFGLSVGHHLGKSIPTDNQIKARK", "test": "Enzyme detection by antibody-probe conjugate: fluorescence/FRET change with NADPH/NQO1", "assay_type": "biochemical", "conditions": "NADPH/NQO1 in water system, culture time of about 1 h; NAM emission 530 nm vs C1 emission 435 nm", "experimental": "In a culture time of about 1 h, a change of about 20 times the FRET ratio (intensity ratio of two emission peaks) can be seen (see inset). The above results indicated the occurrence of an efficient FRET process between the C1 coumarin linkage bond and the enzymatic-produced NAM residue."}, "[2]": {"test_system": "HepG2 cells (lacking CEA and NQO1)", "test": "CLSM detection of intracellular CEA and quinone oxidoreductase, HepG2 cells", "assay_type": "cell-based", "conditions": "HepG2 cells co-cultured with conjugate", "from_the_text": "as §1"}, "[3]": {"test_system": "LS180 cells (normal CEA and lacking NQO1)", "test": "CLSM detection of intracellular CEA and quinone oxidoreductase, LS180 cells", "assay_type": "cell-based", "conditions": "LS180 cells co-cultured with conjugate", "from_the_text": "as §1"}},
  "data": [
    {"smiles": "COC(=O)CC(SC)C(=O)Nc1cc2ccc(-c3cn(CCN4C(=O)c5cccc6c(NC(=O)CC(C)(C)C7=C(C)C(=O)C(C)=C(C)C7=O)ccc(c56)C4=O)nn3)cc2oc1=O", "note": "(stereo not shown) [QNAM-C1-ACEA]", "values": [
      {"measurement": "CLSM emission of C1 coumarin (blue) and NAM (green) in cells", "setting": "[1]", "result": "green channel NAM emission was obviously enhanced"},
      {"measurement": "change of the FRET ratio (intensity ratio of two emission peaks)", "setting": "NQO1", "result": "about 20 times"},
      {"measurement": "CLSM emission of C1 coumarin (blue) and NAM (green) in cells", "setting": "[2]", "result": "very low blue and green emission"},
      {"measurement": "CLSM emission of C1 coumarin (blue) and NAM (green) in cells", "setting": "[3]", "result": "intermittent blue luminous points of C1 coumarin and few NAM green emission signals"}
    ]}
  ]
}
